{"source": "paper PMC7957705", "about": "(Molecules, 2021)", "key": {"[1]": {"test_system": "high-fat diet-induced obese C57BL/6 mice", "experiment": "Diet-induced obesity model: blood biochemistry", "type": "in vivo, mouse", "conditions": "for Insulin / Total Cholesterol / Triglyceride: High-Fat Diet mice", "description": "Male C57BL/6 mice at 4 weeks of age were provided by BioLasco Taiwan (under Charles River Laboratories Licensee). All animals were maintained in an environment with well-controlled temperature (20–24 °C) and humidity (30–70%) with 12 h light/dark cycles. Free access to standard lab diet (MFG (Oriental Yeast Co., Ltd., Japan)) and autoclaved tap water was granted. All aspects of this work including housing, experimentation, and animal disposal were performed in general accordance with the “Guide for the Care and Use of Laboratory Animals: Eighth Edition” (National Academies Press, Washington, D.C., 2011) in our laboratory animal facility accredited by the […]. In addition, the protocol for animal care and use was reviewed and approved by the Institutional Animal Care and Use Committee (IACUC) at Pharmacology Discovery Services Taiwan, Ltd.\nALT (Alanine aminotransferase) and AST (Aspartate aminotransferase) assay kit (Denka Seiken, Japan), Cholesterol assay kit (Denka, Japan), Creatinine assay kit (Denka Seiken, Japan), Mouse insulin ELISA kit (Crystal chem, Elk Grove Village, IL, USA), Na^+/K^+ assay kit (Toshiba, Japan), Triglyceride assay kit (Sentinel Diagnostics, Milano, Italy) and Water for injection (Tai-Yu, Taiwan).\nThe protocol was performed for all groups and all animals. Male C57BL/6 mice were fed a high-fat diet (HFD) (60% of calories) or a standard chow diet (STD) from 4 weeks of age. Thirty (30) mice were fed the HFD and 10 mice were fed the STD (for 8 weeks before treatment) for a total of 20 weeks. The mice assigned to the STD diet were maintained on this diet throughout the study as a reference group of lean control mice. From Week 9, HFD-fed mice were grouped by body weight before dosing. Body weight was recorded three times weekly from Week 9. Food/water intake was recorded twice weekly from Week 9. Blood chemistry analyzes were performed in Weeks 8 (before dosing, Day 56), 16 (Day 113) and 20 (Day 141), including serum insulin, total cholesterol (T-CHO), triglyceride (TG), alanine aminotransferase (ALT), aspartate aminotransferase (AST), uric acid (UA), creatinine, potassium (K^+) and sodium (Na^+). At the termination in Week 20 (Day 141), the adipose tissue weight, including epididymal, mesenteric, inguinal, retroperitoneal, and brown fat, was measured after the animals were sacrificed. Two-way ANOVA followed by Bonferroni’s tests were applied to ascertain the difference between vehicle control and treated animals. Significance was set at p < 0.05 level. The following parameters were measured: (1) body weight three times weekly; (2) food/water intake twice weekly; (3) blood chemistry in Weeks 8 (before dosing), 16 and 20 including glucose, insulin, serum lipids (triglycerides (TG), total cholesterol (TC), AST, alanine aminotransferase (ALT), uric acid, creatinine, potassium and sodium through 16-h fasting animals; and finally, (4) total body fat (including visceral and subcutaneous fat) in Week 20."}, "[2]": {"type": "in vitro ADME", "conditions": "for half-life: plasma", "description": "Plasmas from 3 species (including commercially available human healthy donors) were adjusted to pH 7.4 if necessary. Incubations were performed at a concentration of 1 µM of the compound at 37 °C (in the presence of a final concentration of DMSO of 2.5% v/v. The incubations were stopped at 0, 15, 30, 60 and 120 min by methanol. Each time point was run in sextuplets. The sampling plates were then centrifuged (2500 rpm, 45 min, 4 °C) and the supernatants pooled. Samples were analyzed for parent compound by LC-MS/MS. The percentage of parent compound remaining at each time point relative to the 0 min sample is then calculated from LC-MS/MS peak area ratios. Then, the stability in plasma was evaluated by incubating human, rat or mouse plasma with the compound(s) as follows: the product (0.1 µM in TRIS buffer pH 7.4 0.1% BSA) was incubated with the plasma at 37 °C. The disappearance of the product was measured at 15, 45, 120, 240 and 300 min by mass spectrometry. Incubations were carried out in a robot Star (Hamilton France, Villebon-sur-Yvette, France). At each sampling time, 50 µL of the reaction medium was removed and diluted with 100 µL of acetonitrile. After centrifugation (20 min at + 4 °C, 4000 rpm), 75 µL of the supernatants was transferred into a 384 well injection plate. Ten microliters were injected onto UPLC coupled with a XEVO TQS mass spectrometer system (Waters, Milford, MA, USA). The unchanged product is quantified using a reference sample (0.1 µM) prepared during the incubation process. A second reference sample at 0.01 µM is prepared in the same conditions to verify the linearity of the detection method. The peak height (or area) is measured to calculate the half-life of the compound."}, "[3]": {"conditions": "5 and 10 mg/kg i.p. once daily for 12 weeks, day 113 and day 141"}, "[4]": {"conditions": "5 or 10 mg/kg i.p. daily, HFD mice"}, "[5]": {"conditions": "5 or 10 mg/kg i.p. daily, Day 113 and Day 141"}, "[6]": {"conditions": "5 mg/kg QD x 12 weeks IP, Day 56 (before dosing), mean"}, "[7]": {"conditions": "5 mg/kg QD x 12 weeks IP, Day 113, mean"}, "[8]": {"conditions": "5 mg/kg QD x 12 weeks IP, Day 141, mean"}, "[9]": {"conditions": "10 mg/kg QD x 12 weeks IP, Day 56 (before dosing), mean"}, "[10]": {"conditions": "10 mg/kg QD x 12 weeks IP, Day 113, mean"}, "[11]": {"conditions": "10 mg/kg QD x 12 weeks IP, Day 141, mean"}}, "note": "Entries after “also recorded” stand apart in the source; their conditions may differ. Where two headings read alike, the source gives them in different places. Marks after values point to notes of the source that are not given here. Where a SMILES comes first, the peptide text is derived from it. Bridges are numbered along the chain shown (N, C = ends). Triazole bridges read from a SMILES are 1,4-linked. [ ]: non-standard residue; d: D form. The star is where a group is joined. Benzoyl(4-guanidino) = N=C(N)Nc1ccc(C(=O)*)cc1; Aha = [N-]=[N+]=NCC[C@H](N)C(=O)O; β3hV = CC(C)[C@H](N)CC(=O)O; Nle = CCCC[C@H](N)C(=O)O; Pra = C#CC[C@H](N)C(=O)O", "data": [{"smiles": "CCCC[C@@H]1NC(=O)[C@@H](NC(=O)c2ccc(NC(=N)N)cc2)CCn2cc(nn2)C[C@@H](C(=O)N[C@@H](Cc2c[nH]c3ccccc23)C(=O)O)NC(=O)[C@@H]2CCCN2C(=O)[C@H](CCCNC(=N)N)NC(=O)C[C@H](C(C)C)NC(=O)[C@H](CCCNC(=N)N)NC(=O)[C@H](CC(C)C)NC1=O", "note": "[GPS18169] ({Benzoyl(4-guanidino)}-[Aha][Nle]LR[β3hV]RP[Pra]W-OH; triazole 1-8)", "values": [{"measurement": "insulin level", "setting": "[1]; 10 mg/kg daily, 12 weeks, vs vehicle treated/normal diet", "value": "back to the control"}, {"measurement": "serum alanine aminotransferase (ALT) level vs vehicle", "setting": "[1]; [3]", "value": "not associated with any significant effect"}, {"measurement": "serum aspartate aminotransferase (AST) level vs vehicle", "setting": "[1]; [3]", "value": "not associated with any significant effect"}, {"measurement": "total cholesterol level", "setting": "[1]; [4]", "value": "remained high, despite a modest reduction; also recorded: improvement"}, {"measurement": "triglycerides level", "setting": "[1]; [4]", "value": "remained high, despite a modest reduction; also recorded: improvement"}, {"measurement": "insulin level", "setting": "[1]; 5 or 10 mg/kg i.p. daily, after 12 weeks of treatment, HFD mice", "value": "normalization; also recorded: significant reduction; also recorded: improvement; also recorded: return to almost normal"}, {"measurement": "serum creatinine level vs vehicle", "setting": "[1]; [5]", "value": "did not lead to any significant effect"}, {"measurement": "serum potassium (K+) level vs vehicle", "setting": "[1]; [5]", "value": "did not lead to any significant effect"}, {"measurement": "serum sodium (Na+) level vs vehicle", "setting": "[1]; [5]", "value": "did not lead to any significant effect"}, {"measurement": "serum uric acid (UA) level vs vehicle", "setting": "[1]; 5 or 10 mg/kg i.p. daily, Week 16 (Day 113) and Week 20 (Day 141)", "value": "did not lead to any significant effect"}, {"measurement": "Insulin", "setting": "[1]; [6]", "value": 909.5, "unit": "pg/mL"}, {"measurement": "Total Cholesterol", "setting": "[1]; [6]", "value": 158.3, "unit": "mg/dL"}, {"measurement": "Triglyceride", "setting": "[1]; [6]", "value": 121.8, "unit": "mg/dL"}, {"measurement": "Insulin", "setting": "[1]; [7]", "value": 1983.8, "unit": "pg/mL"}, {"measurement": "Total Cholesterol", "setting": "[1]; [7]", "value": 143.1, "unit": "mg/dL"}, {"measurement": "Triglyceride", "setting": "[1]; [7]", "value": 115.3, "unit": "mg/dL"}, {"measurement": "Total Cholesterol", "setting": "[1]; [8]", "value": 135.6, "unit": "mg/dL"}, {"measurement": "Triglyceride", "setting": "[1]; [8]", "value": 108.9, "unit": "mg/dL"}, {"measurement": "Insulin", "setting": "[1]; [9]", "value": 1068.0, "unit": "pg/mL"}, {"measurement": "Total Cholesterol", "setting": "[1]; [9]", "value": 155.6, "unit": "mg/dL"}, {"measurement": "Triglyceride", "setting": "[1]; [9]", "value": 122.9, "unit": "mg/dL"}, {"measurement": "Insulin", "setting": "[1]; [10]", "value": 1549.7, "unit": "pg/mL"}, {"measurement": "Total Cholesterol", "setting": "[1]; [10]", "value": 135.7, "unit": "mg/dL"}, {"measurement": "Triglyceride", "setting": "[1]; [10]", "value": 108.3, "unit": "mg/dL"}, {"measurement": "Insulin", "setting": "[1]; [11]", "value": "957.0 * pg/mL"}, {"measurement": "Total Cholesterol", "setting": "[1]; [11]", "value": 132.1, "unit": "mg/dL"}, {"measurement": "Triglyceride", "setting": "[1]; [11]", "value": 102.1, "unit": "mg/dL"}, {"measurement": "half-life", "setting": "[2]; human", "value": "≥ 5", "unit": "h"}, {"measurement": "initial dose remaining after incubation in mice plasma", "setting": "[2]; mouse", "value": "about 50%"}, {"measurement": "half-life", "setting": "[2]; mouse", "value": "2.92 ± 0.283", "unit": "h"}, {"measurement": "half-life", "setting": "[2]; rat", "value": "≥ 5", "unit": "h"}]}]}
